{"source": "patent US9487749B2", "about": "(priority 2009, dated 2016)", "assay_type_in_all_cases": "cell-based", "key": {"Candida albicans": {"test_system": "Candida albicans", "test": "USP Antimicrobial Effectiveness Test (AET) of MSM supplemented TSB", "design": "key to AET test results (microorganism count): Colonies too numerous to count (TNTC)", "conditions": "for Log Reduction from Initial Microorganism Inoculum: 1:10 dilution of MSM, 14 Days, 28 Days; for AET test results (microorganism count): 48 hrs", "text": "(§1) Compounds or formulated products having antimicrobial activity may be evaluated with the United States Pharmacopeia (USP) Antimicrobial Effectiveness Test (AET). The AET involves the addition of specified microorganisms (Candida albicans, Aspergillus niger, Escherichia coli, Pseudomonas aeruginosa and Staphylococcus aureus) directly to a test product at relatively high concentrations to simulate contamination. The product is held for one month, with weekly analysis of microorganism levels. […] For yeast and mold, no increase from the initial inoculums level is permitted. […] Inoculations were made using Candida albicans, Aspergillus niger, Escherichia coli, Pseudomonas aeruginosa and Staphylococcus aureus. Tryptic soy broth (TSB) was used as the culturing media. […] The inoculated media was held for one month, during which time the added microorganisms were enumerated weekly to determine if they were growing, dying off, or remaining near the initial inoculation level. […] The acceptance criteria for antimicrobial effectiveness are described in detail in the USP, herein incorporated by reference."}, "Aspergillus niger": {"test_system": "Aspergillus niger", "test": "USP Antimicrobial Effectiveness Test (AET) of MSM supplemented TSB", "design": "key to AET test results (microorganism count): Colonies too numerous to count (TNTC)", "conditions": "for Log Reduction from Initial Microorganism Inoculum: 1:10 dilution of MSM, 14 Days, 28 Days; for AET test results (microorganism count): 48 hrs", "text": "as §1"}, "Staphylococcus aureus": {"test_system": "Staphylococcus aureus", "test": "USP Antimicrobial Effectiveness Test (AET) of MSM supplemented TSB", "design": "key to AET test results (microorganism count): Colonies too numerous to count (TNTC)", "conditions": "for Log Reduction from Initial Microorganism Inoculum: 1:10 dilution of MSM, 14 Days, 28 Days; for AET test results (microorganism count): 48 hrs", "text": "as §1"}, "Salmonella typhimurium": {"test_system": "Salmonella typhimurium", "test": "USP Antimicrobial Effectiveness Test (AET) of MSM supplemented TSB", "design": "key: Colonies too numerous to count (TNTC)", "conditions": "48 hrs"}, "[1]": {"test_system": "Acidophilus plus Bifidus milk microorganisms", "test": "Growth in Acidophilus plus Bifidus milk fortified with MSM", "conditions": "A/B milk", "text": "31, 2013. […] The Acidophilus milk was low fat (Darigold)."}}, "data": [{"smiles": "CS(C)(=O)=O", "note": "[MSM, Methylsulfonylmethane]", "values": [{"measurement": "Log Reduction from Initial Microorganism Inoculum", "setting": "Candida albicans; after 14 days", "value": 4.2, "unit": "log"}, {"measurement": "Log Reduction from Initial Microorganism Inoculum", "setting": "Candida albicans; after 28 days", "value": 4.4, "unit": "log"}, {"measurement": "AET test results (microorganism count)", "setting": "Candida albicans; 1:100 dilution of MSM in TSB", "value": "TNTC"}, {"measurement": "AET test results (microorganism count)", "setting": "Candida albicans; 1:1000 dilution of MSM in TSB", "value": "TNTC"}, {"measurement": "Log Reduction from Initial Microorganism Inoculum", "setting": "Aspergillus niger; after 14 days", "value": 4.3, "unit": "log"}, {"measurement": "Log Reduction from Initial Microorganism Inoculum", "setting": "Aspergillus niger; after 28 days", "value": 4.5, "unit": "log"}, {"measurement": "AET test results (microorganism count)", "setting": "Aspergillus niger; 1:100 dilution of MSM in TSB", "value": "TNTC*"}, {"measurement": "AET test results (microorganism count)", "setting": "Aspergillus niger; 1:1000 dilution of MSM in TSB", "value": "TNTC*"}, {"measurement": "Log Reduction from Initial Microorganism Inoculum", "setting": "Staphylococcus aureus; after 14 days", "value": 4.5, "unit": "log"}, {"measurement": "Log Reduction from Initial Microorganism Inoculum", "setting": "Staphylococcus aureus; after 28 days", "value": 4.7, "unit": "log"}, {"measurement": "AET test results (microorganism count)", "setting": "Staphylococcus aureus; 1:100 dilution of MSM in TSB", "value": "TNTC"}, {"measurement": "AET test results (microorganism count)", "setting": "Staphylococcus aureus; 1:1000 dilution of MSM in TSB", "value": "TNTC"}, {"measurement": "AET test results (microorganism count)", "setting": "Salmonella typhimurium; 1:100 dilution of MSM in TSB", "value": "TNTC"}, {"measurement": "AET test results (microorganism count)", "setting": "Salmonella typhimurium; 1:1000 dilution of MSM in TSB", "value": "TNTC"}, {"measurement": "Log Growth of Lactobacillus acidophilus in Milk fortified with MSM", "setting": "[1]; Day 7", "value": 10.42, "unit": "log"}, {"measurement": "Log Growth of Lactobacillus acidophilus in Milk fortified with MSM", "setting": "[1]; Day 21", "value": 5.37, "unit": "log"}, {"measurement": "Log Growth of Lactobacillus acidophilus in Milk fortified with MSM", "setting": "[1]; Day 28", "value": 3.94, "unit": "log"}, {"measurement": "Log Growth of Lactobacillus acidophilus in Milk fortified with MSM", "setting": "[1]; hour 32", "value": 8.87, "unit": "log"}, {"measurement": "Log Growth of Lactobacillus acidophilus in Milk fortified with MSM", "setting": "[1]; hour 48", "value": 8.3, "unit": "log"}, {"measurement": "Log Growth of Lactobacillus acidophilus in Milk fortified with MSM", "setting": "[1]; hour 72", "value": 8.45, "unit": "log"}, {"measurement": "Log Growth of Lactobacillus acidophilus in Milk fortified with MSM", "setting": "[1]; hour 80", "value": 9.82, "unit": "log"}]}]}
